Results taken from patent US20240300959A1, “BALASUBRAMIDE DERIVATIVE AND USE THEREOF IN PREPARATION OF MEDICINE FOR TREATING ACUTE LUNG INJURY” (Guangdong Pharmaceutical University, priority 2023, published 2024).

Legend:
RAW264.7 cells = test: Cytotoxicity test, CCK-8 cell viability of RAW264.7 cells (24 h); type: cell-based, mice; conditions: 10 μM, RAW264.7 cell viability
Procedure: RAW264.7 cells were inoculated into a 96-well plate at a density of 1×10^5 per well. When the cell density was 70%-80%, the RAW264.7 cells were pretreated with 10 mM working solutions prepared from 18 balasubramide derivatives at a final concentration of 10 μM for 24 h, and then the cell viability was determined by a CCK-8 method.

[1] = system: TNF-α in RAW264.7 macrophages stimulated by lipopolysaccharide; test: TNF-α ELISA in cell supernatant of LPS-stimulated RAW264.7 macrophages; type: cell-based, mice; conditions: 10 μM; for activity at 10 µM: Mus musculus, RAW264.7, 2 h, 3 h pretreatment, LPS 100 ng/mL 2 h, RAW264.7, read-out: Percentage of TNF-α in a model group (%)
Procedure: RAW264.7 cells were inoculated into a 96-well plate at a density of 1×10^5 per well. When the cell density was 70%-80%, 18 balasubramide derivatives were prepared into 10 mM working solutions with DMSO, respectively, and then used to pretreat mononuclear macrophages RAW264.7 of mice at a final concentration of 10 μM. After 3 h, lipopolysaccharide (LPS, 100 ng/mL) was added into all wells for action for 2 h except for a control group. A supernatant was collected for later use, and the expression level of an inflammatory factor TNF-α in the cell supernatant was detected according to an operation instruction of a commercial ELISA kit.
RAW264.7 cells were inoculated into a 96-well plate at a density of 1×10^5 per well. When the cell density was 70%-80%, the RAW264.7 cells were pretreated with (+)3C-20 ([…]). After 3 h, lipopolysaccharide (LPS, 100 ng/mL) was added into all wells for action for 2 h except for a control group. The expression level of an inflammatory factor TNF-α in a cell supernatant was detected according to an operation instruction of a commercial ELISA kit, and the cell viability at different administration concentrations of (+)3C-20 was determined according to an operation instruction of a CCK-8 kit.

Structure (SMILES)	Percentage of CCK-8 in a model group (%) (RAW264.7 cells)	activity at 10 µM [1]	anti-inflammatory activity (inhibition of expression of TNF-α in macrophages), in words ([1]; RAW264.7, LPS)
O=C1NCCc2c([nH]c3ccc(Br)cc23)[C@@H](c2ccccc2)[C@@H]1O [B001]	108.8 ± 2.72%	71.9 ± 3.5%	
Cn1c2c(c3ccccc31)CCNC(=O)[C@@H](OC(=O)CCc1ccc(C(F)(F)F)cc1)[C@@H]2c1ccc(C(F)(F)F)cc1 [(+)-c1]	105.02 ± 2.84%	83.4%	
O=C(CCc1ccc(C(F)(F)F)cc1)O[C@@H]1C(=O)NCCc2c([nH]c3cc(Cl)ccc23)[C@H]1c1ccc(C(F)(F)F)cc1 [(+)-B3f]	96.96 ± 3.85%	90.2 ± 2.92%	
CCn1c2c(c3ccccc31)CCNC(=O)[C@@H](OC(=O)CCc1ccc(C(F)(F)F)cc1)[C@@H]2c1ccc(C(F)(F)F)cc1 [(+)-c2]	102.17 ± 2.74%	101 ± 1.21%	
CCCn1c2c(c3ccccc31)CCNC(=O)[C@@H](OC(=O)CCc1ccc(C(F)(F)F)cc1)[C@@H]2c1ccc(C(F)(F)F)cc1 [(+)-c3]	110.41 ± 0.54%	81.8 ± 1.11%	
O=C(CCc1ccc(C(F)(F)F)cc1)O[C@@H]1C(=O)NCCc2c([nH]c3ccccc23)[C@H]1c1ccc(C(F)(F)F)cc1 (racemic) [(±)-3C-20]			better anti-inflammatory activity than other derivatives
Cc1cccc2c3c([nH]c12)[C@@H](c1ccc(C(F)(F)F)cc1)[C@H](OC(=O)CCc1ccc(C(F)(F)F)cc1)C(=O)NCC3 [(+)-B3g]	101.49 ± 2.57%	78.5%	
CCOc1ccc2[nH]c3c(c2c1)CCNC(=O)[C@@H](OC(=O)CCc1ccc(C(F)(F)F)cc1)[C@@H]3c1ccc(C(F)(F)F)cc1 [(+)-D7a]	106.69 ± 1.21%	97.7 ± 1.5%	
O=C(CCc1ccc(C(F)(F)F)cc1)O[C@@H]1C(=O)NCCc2c([nH]c3ccc(OCc4ccccc4)cc23)[C@H]1c1ccc(C(F)(F)F)cc1 [(+)-B3h]	99.75 ± 1.27%	66.1%	
